The structures appear in SMILES notation. Some results are limits rather than exact numbers.

What all share (type): cell-based, HEK293
Assay [1] addresses T1, Sodium-dependent serotonin transporter (Homo sapiens, UniProt P31645). In words: Inhibition of [3H]5-HT uptake in HEK cells expressing human SERT.
Assay [2] addresses T2, Sodium-dependent dopamine transporter (Homo sapiens, UniProt Q01959).
Assay [3] deals with T3, Sodium-dependent noradrenaline transporter (Homo sapiens, UniProt P23975).
In assay [4] the target is T1, Sodium-dependent serotonin transporter.
Assay [5] deals with T3, Sodium-dependent noradrenaline transporter. In words: Inhibition of [3H]norepinephrine uptake in HEK cells expressing human NET.
In assay [6] the target is T2, Sodium-dependent dopamine transporter. As to the kind of experiment: Inhibition of [3H]dopamine uptake in HEK cells expressing human DAT.

T1 sequence (P31645 whole entry): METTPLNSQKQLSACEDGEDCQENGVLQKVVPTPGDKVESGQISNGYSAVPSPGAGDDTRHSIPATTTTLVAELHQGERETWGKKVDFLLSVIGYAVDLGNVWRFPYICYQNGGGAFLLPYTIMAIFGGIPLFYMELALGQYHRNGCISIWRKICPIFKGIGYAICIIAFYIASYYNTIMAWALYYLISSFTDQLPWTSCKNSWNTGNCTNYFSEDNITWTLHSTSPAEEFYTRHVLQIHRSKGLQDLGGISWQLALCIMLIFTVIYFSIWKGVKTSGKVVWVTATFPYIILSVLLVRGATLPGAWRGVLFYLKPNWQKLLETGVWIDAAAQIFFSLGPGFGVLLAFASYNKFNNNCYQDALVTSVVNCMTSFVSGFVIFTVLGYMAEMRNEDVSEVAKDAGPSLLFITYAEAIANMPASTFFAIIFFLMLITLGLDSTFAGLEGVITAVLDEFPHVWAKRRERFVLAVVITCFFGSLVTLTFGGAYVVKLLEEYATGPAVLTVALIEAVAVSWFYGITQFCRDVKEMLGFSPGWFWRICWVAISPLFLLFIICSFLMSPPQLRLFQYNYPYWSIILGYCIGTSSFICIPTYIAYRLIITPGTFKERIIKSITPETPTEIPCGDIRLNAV
T3 sequence (P23975 whole entry): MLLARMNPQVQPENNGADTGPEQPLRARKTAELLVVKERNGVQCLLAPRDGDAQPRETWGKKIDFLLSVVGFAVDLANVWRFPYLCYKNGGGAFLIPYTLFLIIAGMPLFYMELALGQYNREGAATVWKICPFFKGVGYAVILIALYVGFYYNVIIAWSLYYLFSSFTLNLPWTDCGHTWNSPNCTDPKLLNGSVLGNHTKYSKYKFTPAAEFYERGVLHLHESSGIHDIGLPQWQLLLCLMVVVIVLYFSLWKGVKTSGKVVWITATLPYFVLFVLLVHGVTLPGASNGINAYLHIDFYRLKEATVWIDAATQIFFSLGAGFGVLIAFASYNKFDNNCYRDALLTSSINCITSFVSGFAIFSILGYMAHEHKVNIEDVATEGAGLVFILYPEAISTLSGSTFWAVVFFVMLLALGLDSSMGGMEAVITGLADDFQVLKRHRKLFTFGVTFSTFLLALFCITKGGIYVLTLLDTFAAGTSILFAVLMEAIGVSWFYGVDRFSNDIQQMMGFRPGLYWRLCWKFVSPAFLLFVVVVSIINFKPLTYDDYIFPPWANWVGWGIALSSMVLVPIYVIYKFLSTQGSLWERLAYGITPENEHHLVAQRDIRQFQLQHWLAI
T2 sequence (Q01959 whole entry): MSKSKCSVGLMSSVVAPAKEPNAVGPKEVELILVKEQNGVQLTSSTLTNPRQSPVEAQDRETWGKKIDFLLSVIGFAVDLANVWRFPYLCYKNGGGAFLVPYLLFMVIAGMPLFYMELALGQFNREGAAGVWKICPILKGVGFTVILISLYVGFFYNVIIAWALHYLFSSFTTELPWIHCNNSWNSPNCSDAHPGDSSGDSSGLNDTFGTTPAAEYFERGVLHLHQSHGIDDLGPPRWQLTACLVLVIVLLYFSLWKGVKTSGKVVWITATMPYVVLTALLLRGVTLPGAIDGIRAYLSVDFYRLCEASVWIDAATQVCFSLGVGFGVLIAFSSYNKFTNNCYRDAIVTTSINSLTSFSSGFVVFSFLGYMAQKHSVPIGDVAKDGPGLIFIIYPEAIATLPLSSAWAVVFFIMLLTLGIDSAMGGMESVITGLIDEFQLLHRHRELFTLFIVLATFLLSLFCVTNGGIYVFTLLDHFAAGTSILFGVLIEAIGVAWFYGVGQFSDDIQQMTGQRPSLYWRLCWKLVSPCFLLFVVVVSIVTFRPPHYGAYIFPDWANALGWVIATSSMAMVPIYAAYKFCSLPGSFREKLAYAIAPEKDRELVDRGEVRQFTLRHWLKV

Turning to `COC(=O)C1C(c2ccc(C(C)=O)c(C(C)=O)c2)CC2CCC1N2C` (stereo in doubt; 10), the IC50 in assay [1] is 0.33 µM. Moreover, the Ki in assay [2] (hek293) is greater than 10 µM; in assay [3] (hek293), greater than 10 µM; in assay [4], 0.168 µM.
`COC(=O)C1=C(c2ccc(C(C)=O)c(C(C)=O)c2)CC2CCC1N2C` (stereo not given): the Ki in assay [2], in assay [3] and in assay [4] was greater than 10 µM each time.
Turning to `COC(=O)C1=C(c2ccc(O)c(O)c2)CC2CCC1N2C` (stereo not given), the Ki in assay [2], in assay [3] and in assay [4] was greater than 10 µM each time.
With `COC(=O)C1C(c2ccc(OC)c(OC)c2)CC2CCC1N2C` (stereo not given), the IC50 amounted to 0.023 µM in assay [1], 1.45 µM in assay [5] and 1.57 µM in assay [6]. The Ki in assay [2] turned out to be 1.54 µM; in assay [3], 4.5 µM; in assay [4] it was 0.046 µM.
In the case of `COC(=O)C1C(c2ccc(O)c(O)c2)CC2CCC1N2C` (stereo in doubt; 8), the values for the Ki in assay [2], in assay [3] and in assay [4] were 0.97 µM, 3.06 µM and 10 µM, respectively. In addition, the IC50 in assay [5] is 0.173 µM; in assay [6] it was 0.406 µM.
As for `COC(=O)C1C(c2ccc(O)c(O)c2)CC2CCC1N2C` (stereo in doubt; 7), the IC50 is 0.308 µM in assay [1], 0.122 µM in assay [5] and 0.507 µM in assay [6]. Also, the results for the Ki in assay [2], in assay [3] and in assay [4] were 1.37 µM, 2.96 µM and 0.271 µM, respectively.
For `COC(=O)C1C(c2ccc(C(C)=O)c(C(C)=O)c2)CC2CCC1N2C` (stereo in doubt; 11), the Ki was greater than 10 µM in assay [2], greater than 10 µM in assay [3] and 0.704 µM in assay [4].

As a reminder, the IC50 is the concentration at which inhibition is half-maximal. In general, Ki refers to the dissociation constant of the complex between target and ligand, obtained from inhibition or displacement. Higher therefore signals lower affinity.

These data come from ChEMBL document CHEMBL1136450, “Synthesis and biological activity of 2-carbomethoxy-3-catechol-8-azabicyclo[3.2.1]octanes” (Bioorg Med Chem Lett, 2003).
